# Key:
# [1] = DPPH radical scavenging activity; conditions: 0.1 mM DPPH in methanol, 37°C, 30 min
# Protocol: This assay was conducted as previously described by Wen et al. with some modifications. DPPH was freshly prepared in methanol at a concentration of 0.1 mM. The solution (20 μL) containing the tested compounds with different concentrations was added into the DPPH solution (180 μL) in the 96-well plates. […] The IC50 value was calculated on the scavenging activity against DPPH radical.
# HepG2 cells = assay: Cellular antioxidant activity (CAA) assay; type: cell-based; conditions: DCFH-DA 25 μM, ABAP 600 μM
# Protocol: The CAA assay was tested as described previously. 6 × 10^4 cells/well of HepG2 cells were seeded at a 96-well microplate with 100 μL of growth medium/well. […] Then, the cells were washed with PBS and treated with 100 μL of 600 μM ABAP (dissolved in HBSS), and the 96-well microplate was immediately placed into an Infinite SpectraMax i3x Multi-Mode Detection plate-reader at 37°C. […]
# [2] = Oxygen radical antioxidant capacity (ORAC) assay; conditions: Trolox equivalents; AAPH, fluorescein
# Protocol: The ORAC assay was evaluated as previously described by Cao et al. with some modifications. 50 μL of samples or Trolox with different concentrations and the fluorescein solution was added to a 96-well microplate, which was incubated at 37°C for 10 min. […] The ORAC values were calculated by the regression equation between the Trolox concentration and the net area under the curve (expressed as μmol Trolox eq/μmol sample).
molecule,measurement,setting,value
"COc1cc(-c2oc3cc(O)cc(O)c3c(=O)c2O)ccc1O [compound 1, Isorhamnetin]",IC50,[1],126 ± 4.26 µM
same,EC50,HepG2 cells; Homo sapiens,23.3 ± 1.38 µM
"COc1ccc(-c2oc3cc(O)cc(O)c3c(=O)c2O)cc1 [compound 3, Kaempferide]",IC50,[1],> 200 µM
same,EC50,HepG2 cells; Homo sapiens,> 30 µM
"O=c1c(O)c(-c2ccc(O)cc2O)oc2cc(O)cc(O)c12 [compound 4, Morin]",IC50,[1],> 200 µM
same,ORAC values,[2],5.98 ± 0.01 μmol TE/μmol
same,EC50,HepG2 cells; Homo sapiens,15.2 ± 0.32 µM
"O=c1c(O)c(-c2ccc(O)cc2)oc2cc(O)cc(O)c12 [compound 6, Kaempferol]",IC50,[1],> 200 µM
same,ORAC values,[2],4.17 ± 0.06 μmol TE/μmol
same,EC50,HepG2 cells; Homo sapiens,11 ± 0.25 µM
"O=c1c(O)c(-c2ccc(O)c(O)c2)oc2cc(O)cc(O)c12 [compound 7, Quercetin, reference compound]",IC50,[1],21.5 ± 1.9 µM
same,ORAC values,[2],5.52 ± 0.04 μmol TE/μmol
same,EC50,HepG2 cells; Homo sapiens,8.77 ± 0.09 µM
"O=c1c(O[C@@H]2O[C@H](CO)[C@H](O)[C@H](O)[C@H]2O)c(-c2ccc(O)cc2)oc2cc(O)cc(O)c12 [compound 11, Trifolin]",IC50,[1],45.1 ± 2.12 µM
same,ORAC values,[2],2.06 ± 0.01 μmol TE/μmol
same,EC50,HepG2 cells; Homo sapiens,> 200 µM
"O=c1c(O)c(-c2ccc(OC3O[C@H](CO)[C@@H](O)[C@H](O)[C@H]3O)cc2)oc2cc(O)cc(O)c12 (stereo partly shown) [compound 12, Kaempferol-4′-O-glucopyranoside]",IC50,[1],> 200 µM
same,EC50,HepG2 cells; Homo sapiens,> 200 µM
"C[C@@H]1O[C@@H](OC[C@H]2O[C@@H](Oc3c(-c4ccc(O)c(O)c4)oc4cc(O)cc(O)c4c3=O)[C@H](O)[C@@H](O)[C@@H]2O)[C@H](O)[C@H](O)[C@H]1O [compound 16, Rutin]",IC50,[1],70 ± 1.44 µM
same,EC50,HepG2 cells; Homo sapiens,> 200 µM
"O=c1c(O)c(-c2ccc(O[C@@H]3O[C@H](CO)[C@@H](O)[C@H](O)[C@H]3O)c(O)c2)oc2cc(O)cc(O)c12 [compound 17, Spiraeoside]",IC50,[1],> 200 µM
same,EC50,HepG2 cells; Homo sapiens,> 200 µM
"O=c1c(O)c(-c2cc(O)c(O)c(O)c2)oc2cc(O)cc(O)c12 [compound 18, Myricetin]",IC50,[1],21.3 ± 1.33 µM
same,ORAC values,[2],6.64 ± 0.03 μmol TE/μmol
same,EC50,HepG2 cells; Homo sapiens,26.7 ± 1.04 µM
"COc1ccc(-c2cc(=O)c3c(OC)c(OC)c(OC)c(OC)c3o2)cc1 [compound 19, Tangeretin]",IC50,[1],> 200 µM
same,EC50,HepG2 cells; Homo sapiens,> 200 µM
"O=c1cc(-c2ccccc2)oc2cc(O)cc(O)c12 [compound 20, Chrysin]",IC50,[1],> 200 µM
same,EC50,HepG2 cells; Homo sapiens,> 200 µM
"O=c1cc(-c2ccccc2)oc2cc(O)c(O)c(O)c12 [compound 21, Baicalein]",IC50,[1],> 200 µM
same,EC50,HepG2 cells; Homo sapiens,42.5 ± 0.24 µM
"O=c1cc(-c2ccc(O)cc2)oc2cc(O)cc(O)c12 [compound 22, Apigenin]",IC50,[1],> 200 µM
same,ORAC values,[2],4.27 ± 0.02 μmol TE/μmol
same,EC50,HepG2 cells; Homo sapiens,> 200 µM
"O=c1cc(-c2ccc(O)c(O)c2)oc2cc(O)cc(O)c12 [compound 23, Luteolin]",IC50,[1],73.2 ± 0.75 µM
same,ORAC values,[2],4.27 ± 0.02 μmol TE/μmol
same,EC50,HepG2 cells; Homo sapiens,18.6 ± 0.61 µM
"O=c1c(OC2OC(CO)C(O)C(O)C2O)c(-c2cc(O)c(O)c(O)c2)oc2cc(O)cc(O)c12 (stereo not shown) [compound 25, Myricetin-3-O-galactoside]",IC50,[1],82.4 ± 2.88 µM
same,EC50,HepG2 cells; Homo sapiens,> 200 µM
"O=c1c(OC2OC(CO)C(O)C(O)C2O)c(-c2ccc(O)c(O)c2)oc2cc(O)cc(O)c12 (stereo not shown) [compound 26, Quercetin-3-O-galactoside]",IC50,[1],53.3 µM
same,ORAC values,[2],4.05 ± 0.15 μmol TE/μmol
same,EC50,HepG2 cells; Homo sapiens,45.9 µM
"C[C@@H]1O[C@@H](Oc2c(-c3ccc(O)c(O)c3)oc3cc(O)cc(O)c3c2=O)[C@H](O)[C@H](O)[C@H]1O [compound 28, Quercitrin]",IC50,[1],68.3 ± 1.37 µM
same,EC50,HepG2 cells; Homo sapiens,> 200 µM
"O=c1c(O[C@@H]2O[C@H](CO)[C@@H](O)[C@H](O)[C@H]2O)c(-c2ccc(O)c(O)c2)oc2cc(O)cc(O)c12 [compound 29, Isoquercitrin]",IC50,[1],> 200 µM
same,EC50,HepG2 cells; Homo sapiens,> 200 µM
"O=c1cc(-c2ccc(O)cc2)oc2c([C@@H]3O[C@H](CO)[C@@H](O)[C@H](O)[C@H]3O)c(O)cc(O)c12 [compound 30, Vitexin]",IC50,[1],> 200 µM
same,ORAC values,[2],6.80 ± 0.42 μmol TE/μmol
same,EC50,HepG2 cells; Homo sapiens,> 200 µM
"O=c1cc(-c2ccc(O)c(O)c2)oc2c([C@@H]3O[C@H](CO)[C@@H](O)[C@H](O)[C@H]3O)c(O)cc(O)c12 [compound 31, Orientin]",IC50,[1],> 200 µM
same,EC50,HepG2 cells; Homo sapiens,> 200 µM
"O=c1cc(-c2ccc(O)cc2)oc2cc(O)c([C@@H]3O[C@H](CO)[C@@H](O)[C@H](O)[C@H]3O)c(O)c12 [compound 33, Isovitexin]",IC50,[1],> 200 µM
same,EC50,HepG2 cells; Homo sapiens,> 200 µM
"O=c1c(O)c(-c2ccccc2)oc2cc(O)cc(O)c12 [compound 34, Galangin]",IC50,[1],> 200 µM
same,EC50,HepG2 cells; Homo sapiens,31.2 ± 0.86 µM
"O=c1c(O)c(-c2ccc(O)c(O)c2)oc2cc(O)ccc12 [compound 35, Fisetin]",IC50,[1],25.2 ± 0.62 µM
same,ORAC values,[2],5.36 ± 0.21 μmol TE/μmol
same,EC50,HepG2 cells; Homo sapiens,> 200 µM
"COc1ccc(-c2cc(=O)c3c(O)cc(O)cc3o2)cc1O [compound 36, Diosmetin]",IC50,[1],> 200 µM
same,ORAC values,[2],5.02 ± 0.14 μmol TE/μmol
same,EC50,HepG2 cells; Homo sapiens,> 200 µM
"COc1cc(O)c2c(=O)cc(-c3ccc(O)cc3)oc2c1 [compound 37, Genkwanin]",IC50,[1],> 200 µM
same,EC50,HepG2 cells; Homo sapiens,> 200 µM
"O=C1c2c(O)cc(O)cc2O[C@H](c2cc(O)c(O)c(O)c2)[C@H]1O [compound 38, Dihydromyricetin]",IC50,[1],> 200 µM
same,ORAC values,[2],5.25 ± 0.02 μmol TE/μmol
same,EC50,HepG2 cells; Homo sapiens,> 200 µM
"O=C1c2c(O)cc(O)cc2OC(c2ccc(O)c(O)c2)C1O (stereo not shown) [compound 39, Taxifolin]",IC50,[1],59.6 ± 3.12 µM
same,ORAC values,[2],5.26 ± 0.04 μmol TE/μmol
same,EC50,HepG2 cells; Homo sapiens,> 200 µM
"O=C1c2c(O)cc(O)cc2O[C@H](c2ccc(O)cc2O)[C@H]1O [compound 40, Dihydromorin]",IC50,[1],> 200 µM
same,ORAC values,[2],5.29 ± 0.05 μmol TE/μmol
same,EC50,HepG2 cells; Homo sapiens,> 200 µM
"COc1ccc([C@@H]2CC(=O)c3c(O)cc(O[C@@H]4O[C@H](CO)[C@@H](O)[C@H](O)[C@H]4O[C@@H]4O[C@@H](C)[C@H](O)[C@@H](O)[C@H]4O)cc3O2)cc1O [compound 41, Neohesperidin]",IC50,[1],> 200 µM
same,EC50,HepG2 cells,> 200 µM
"C[C@@H]1O[C@@H](OC[C@H]2O[C@@H](Oc3cc(O)c4c(c3)O[C@H](c3ccc(O)cc3)CC4=O)[C@H](O)[C@@H](O)[C@@H]2O)[C@H](O)[C@H](O)[C@H]1O [compound 42, Narirutin]",IC50,[1],> 200 µM
same,EC50,HepG2 cells; Homo sapiens,> 200 µM
"COc1ccc([C@@H]2CC(=O)c3c(O)cc(O)cc3O2)cc1O [compound 43, Hesperetin]",IC50,[1],> 200 µM
same,EC50,HepG2 cells; Homo sapiens,> 200 µM
"COc1ccc([C@@H]2CC(=O)c3c(O)cc(O[C@@H]4O[C@H](CO[C@@H]5O[C@@H](C)[C@H](O)[C@@H](O)[C@H]5O)[C@@H](O)[C@H](O)[C@H]4O)cc3O2)cc1O [compound 44, Hesperidin]",IC50,[1],> 200 µM
same,ORAC values,[2],6.52 ± 0.15 μmol TE/μmol
same,EC50,HepG2 cells,> 200 µM
"O=C1C[C@@H](c2ccc(O)cc2)Oc2cc(O)cc(O)c21 [compound 45, Naringenin]",IC50,[1],> 200 µM
same,ORAC values,[2],4.62 ± 0.13 μmol TE/μmol
same,EC50,HepG2 cells; Homo sapiens,> 200 µM
"O=C1C[C@@H](c2ccc(O)cc2)Oc2cc(O)ccc21 [compound 46, Liquiritigenin]",IC50,[1],> 200 µM
same,EC50,HepG2 cells; Homo sapiens,> 200 µM
"O=C(CCc1ccc(O)cc1)c1c(O)cc(O)cc1O [compound 48, Phloretin]",IC50,[1],> 200 µM
same,EC50,HepG2 cells; Homo sapiens,30.96 ± 0.2 µM
"O=C(/C=C/c1ccc(O)cc1)c1ccc(O)cc1O [compound 50, Isoliquiritigenin]",EC50,HepG2 cells; Homo sapiens,> 200 µM
"OCC1OC(Oc2cc3c(OC4OC(CO)C(O)C(O)C4O)cc(O)cc3[o+]c2-c2ccc(O)c(O)c2)C(O)C(O)C1O (stereo not shown) [compound 53, Cyanin chloride]",IC50,[1],> 200 µM
same,EC50,HepG2 cells; Homo sapiens,> 200 µM
"OCC1OC(Oc2cc3c(OC4OC(CO)C(O)C(O)C4O)cc(O)cc3[o+]c2-c2ccc(O)cc2)C(O)C(O)C1O (stereo not shown) [compound 55, Pelargonin chloride]",IC50,[1],> 200 µM
same,EC50,HepG2 cells; Homo sapiens,> 200 µM
Myricitrin [compound 9],IC50,[1],50.9 ± 2.14 µM
same,EC50,HepG2 cells,> 200 µM
Quercetin-3-O-rhamnoside [compound 27],IC50,[1],47.7 µM
same,EC50,HepG2 cells,22.8 µM

# Reference: publication PMC7525318, “Identification of Six Flavonoids as Novel Cellular Antioxidants and Their Structure-Activity Relationship” (Oxidative Medicine and Cellular Longevity, 2020)
